Data published in US10343992B2, “1-cyano-pyrrolidine compounds as USP30 inhibitors” (MISSION THERAPEUTICS LIMITED, priority 2015, dated 2019).
pIC50: −log10 of the molar value.

Biological target: USP30 (Homo sapiens (Human), UniProt Q70CQ3)
Experiment: USP30 biochemical FP or FI IC50 assay
Settings: read-out: IC50 range
Method: USP30 Biochemical IC50 Assay
Dilution plates were prepared at 21 times the final concentration (2100 μM for a final concentration of 100 μM) in 50% DMSO in a 96-well polypropylene V-bottom plate (Greiner #651201). A typical 8-point dilution series would be 100, 30, 10, 3, 1, 0.3, 0.1, 0.03 μM final. Reactions were performed in duplicate in black 384 well plates (small volume, Greiner 784076) in a final reaction volume of 21 μl. Either 1 μl of 50% DMSO or diluted compound was added to the plate. USP30 was diluted in reaction buffer (40 mM Tris, pH 7.5, 0.005% Tween 20, 0.5 mg/ml BSA, 5 mM—beta-mercaptoethanol) to the equivalent of 0.05 μl/well and 10 μl of diluted USP30 was added to the compound. Enzyme and compound were incubated for 30 min at room temp. Reactions were initiated by the addition of 50 nM of TAMRA labelled peptide linked to ubiquitin via an iso-peptide bond as fluorescence polarisation substrate. Reactions were read immediately after addition of substrate and following a 2 hr incubation at room temperature. Readings were performed on a Pherastar Plus (BMG Labtech). λ Excitation 540 nm; λ Emission 590 nm.
USP30 Biochemical Fluorescence Intensity IC50 Assay
Dilution plates were prepared at 21 times the final concentration (2100 μM for a final concentration of 100 μM) in 50% DMSO in a 96-well polypropylene V-bottom plate (Greiner #651201). A typical 8-point dilution series would be 100, 30, 10, 3, 1, 0.3, 0.1, 0.03 μM final. Reactions were performed in duplicate in black 384 well plates (small volume, Greiner 784076) in a final reaction volume of 21 μl.
Either 1 μl of 50% DMSO or diluted compound was added to the plate. USP30 was diluted in reaction buffer (40 mM Tris, pH 7.5, 0.005% Tween 20, 0.5 mg/ml BSA, 5 mM—beta-mercaptoethanol) to the equivalent of 0.001 μl/well and 10 μl of diluted USP30 was added to the compound. Enzyme and compound were incubated for 30 min at room temp. Reactions were initiated by the addition of Ubiquitin-Rhodamine 110 (U-555; Boston Biochem) at a final concentration of 100 nM. Reactions were read immediately after addition of substrate and following a 2 h incubation at room temperature. Readings were performed on a Pherastar Plus (BMG Labtech). λ Excitation 487 nm; λ Emission 535 nm.

USP30, sequence (Q70CQ3 57-517): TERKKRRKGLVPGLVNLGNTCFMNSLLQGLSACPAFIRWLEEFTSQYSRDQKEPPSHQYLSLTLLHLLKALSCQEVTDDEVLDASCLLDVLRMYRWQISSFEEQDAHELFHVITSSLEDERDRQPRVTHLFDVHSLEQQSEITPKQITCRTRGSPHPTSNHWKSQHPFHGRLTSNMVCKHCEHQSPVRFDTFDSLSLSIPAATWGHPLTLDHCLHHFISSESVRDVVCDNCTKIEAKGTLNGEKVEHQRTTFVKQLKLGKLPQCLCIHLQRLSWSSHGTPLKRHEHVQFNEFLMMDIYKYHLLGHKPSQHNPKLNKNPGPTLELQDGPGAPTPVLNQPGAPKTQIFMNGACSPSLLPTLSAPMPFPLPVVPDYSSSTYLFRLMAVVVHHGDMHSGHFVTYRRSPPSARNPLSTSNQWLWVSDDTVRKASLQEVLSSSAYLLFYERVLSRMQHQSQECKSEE

| SMILES | pIC50 |
| --- | --- |
| CO[C@H]1CN(C#N)C[C@@H]1N(C)C(=O)c1ccc(-c2cnn(C)c2)cc1 (relative stereo) [Example 178, N-((trans)-1-cyano-4-methoxypyrrolidin-3-yl)-N-methyl-4-(1-methyl-1H-pyrazol-4-yl)benzamide] | 6.00 to 7.00 |
| N#CN1C[C@H]2CCN(C(=O)c3cc(-c4ccccc4)n[nH]3)[C@H]2C1 (stereo in doubt) [Example 246, 1-(3-phenyl-1H-pyrazole-5-carbonyl)hexahydropyrrolo[3,4-b]pyrrole-5(1H)-carbonitrile] | 6.00 to 7.00 |
| N#CN1CC[C@@H](NC(=O)c2ccc(-c3ccccc3)cn2)C1 [Example 1, (R)—N-(1-cyanopyrrolidin-3-yl)-5-phenylpicolinamide] | 6.00 to 7.00 |
| COc1cc(C(=O)N[C@@H]2CCN(C#N)C2)ccc1-c1cnn(C)c1 [Example 2, (R)—N-(1-cyanopyrrolidin-3-yl)-3-methoxy-4-(1-methyl-1H-pyrazol-4-yl)benzamide] | > 7.00 |
| N#CN1CCC(NC(=O)c2ccc(-c3ccccc3Cl)cc2)C1 (stereo not drawn) [Example 3, 2′-chloro-N-(1-cyanopyrrolidin-3-yl)-[1,1′-biphenyl]-4-carboxamide] | > 7.00 |
| CN(Cc1ccccc1)c1ccc(C(=O)NC2CCN(C#N)C2)cn1 (stereo not drawn) [Example 4, 6-(benzyl(methyl)amino)-N-(1-cyanopyrrolidin-3-yl)nicotinamide] | 6.00 to 7.00 |
| N#CN1CC[C@@H](NC(=O)N2CC(c3ccccc3)C2)C1 [Example 5, (R)—N-(1-cyanopyrrolidin-3-yl)-3-phenylazetidine-1-carboxamide] | 6.00 to 7.00 |
| C[C@@H]1CN(c2ccc(C(=O)N[C@@H]3CCN(C#N)C3)cc2F)C[C@H](C)O1 [Example 6, N—((R)-1-cyanopyrrolidin-3-yl)-4-((cis)-2,6-dimethylmorpholino)-3-fluorobenzamide] | 6.00 to 7.00 |
| N#CN1CCC(NC(=O)c2ccc(N3CCC(Oc4ccccc4)CC3)nc2)C1 (stereo not drawn) [Example 22, N-(1-cyanopyrrolidin-3-yl)-6-(4-phenoxypiperidin-1-yl)nicotinamide] | 6.00 to 7.00 |
| N#CN1CCC(NC(=O)c2ccnc(N3CCc4ccccc4C3)c2)C1 (stereo not drawn) [Example 27, N-(1-cyanopyrrolidin-3-yl)-2-(3,4-dihydroisoquinolin-2(1H)-yl)isonicotinamide] | 6.00 to 7.00 |
| N#CN1CC[C@@H](NC(=O)c2cccc(-c3ccccc3)n2)C1 [Example 29, (R)-N-(1-cyanopyrrolidin-3-yl)-6-phenylpicolinamide] | 6.00 to 7.00 |
| N#CN1CC[C@@H](NC(=O)c2cc(-c3ccccc3)ccn2)C1 [Example 30, (R)-N-(1-cyanopyrrolidin-3-yl)-4-phenylpicolinamide] | 6.00 to 7.00 |
| N#CN1CC[C@@H](NC(=O)c2ccc(N3CCOCC3)c(F)c2)C1 [Example 32, (R)-N-(1-cyanopyrrolidin-3-yl)-3-fluoro-4-morpholinobenzamide] | 6.00 to 7.00 |
| N#CN1CC[C@@H](NC(=O)c2cc(-c3ccccc3)no2)C1 [Example 33, (R)-N-(1-cyanopyrrolidin-3-yl)-3-phenylisoxazole-5-carboxamide] | 6.00 to 7.00 |
| N#CN1CC[C@@H](NC(=O)c2cc(-c3ccncc3)on2)C1 [Example 34, (R)-N-(1-cyanopyrrolidin-3-yl)-5-(pyridin-4-yl)isoxazole-3-carboxamide] | 6.00 to 7.00 |
| N#CN1CC[C@@H](NC(=O)c2ccc(-c3ccccc3)cc2)C1 [Example 35, (R)-N-(1-cyanopyrrolidin-3-yl)-[1,1′-biphenyl]-4-carboxamide] | > 7.00 |
| N#CN1CC[C@@H](NC(=O)c2cnc(-c3ccccc3Cl)s2)C1 [Example 37, (R)-2-(2-chlorophenyl)-N-(1-cyanopyrrolidin-3-yl)thiazole-5-carboxamide] | > 7.00 |
| N#CN1CC[C@@H](NC(=O)c2ccc(-c3ccncc3Cl)cc2)C1 [Example 38, (R)-4-(3-chloropyridin-4-yl)-N-(1-cyanopyrrolidin-3-yl)benzamide] | > 7.00 |
